Experimental data published in patent US20260014226A1, “STABLE READY TO DILUTE COMPOSITION OF CARFILZOMIB” (Kashiv BioSciences, LLC, priority 2021, published 2026).

System: diluted blood (red blood cell)
Type: cell-based, Human
Protocol: The term “hemolytic potential’ refers to ability of fluid to degrade the red blood cell and releases hemoglobin. The hemolytic potential is measured as release of hemoglobin from blood cells. • Blank, Negative and Positive Control • Blank: Diluted Blood • Negative control (Vehicle): 0.9% Sodium chloride (Normal Saline) is isotonic with Human blood. • Positive control: 5% Saponin was used as positive control Required quantity of blood was collected into K2 EDTA vials and immediately mixed well, this was used for the study within 24 hours of blood collection. The blood was maintained at ambient room temperature before use. Hemoglobin was determined using Advia 2120i heamtology system for this purpose, concentrations will be determined twice, before and after dilution. A separate aliquot of blood was centrifuged, and plasma was analyzed for hemoglobin to ensure blood was not hemolyzed before the study. Hemoglobin standard solutions was prepared using human hemoglobin. Initially, a stock solution of 180 mg hemoglobin/mL was prepared in Drabkin's reagent by dissolving the hemoglobin powder in Drabkin's reagent. The working standards of at least 6 different concentrations was prepared in Drabkin's reagent and was read in plate reader at 540 nm wavelength. […]

## Saponin [Positive control]
  % Hemolysis: 100.00%
